Tests used:
Flt3 (h) = target: T1, Flt3 (h) (Homo sapiens, UniProt P36888); assay: FLT3 in vitro peptide-based kinase assay, Protocol 1; type: biochemical
T1 sequence (P36888 27-993): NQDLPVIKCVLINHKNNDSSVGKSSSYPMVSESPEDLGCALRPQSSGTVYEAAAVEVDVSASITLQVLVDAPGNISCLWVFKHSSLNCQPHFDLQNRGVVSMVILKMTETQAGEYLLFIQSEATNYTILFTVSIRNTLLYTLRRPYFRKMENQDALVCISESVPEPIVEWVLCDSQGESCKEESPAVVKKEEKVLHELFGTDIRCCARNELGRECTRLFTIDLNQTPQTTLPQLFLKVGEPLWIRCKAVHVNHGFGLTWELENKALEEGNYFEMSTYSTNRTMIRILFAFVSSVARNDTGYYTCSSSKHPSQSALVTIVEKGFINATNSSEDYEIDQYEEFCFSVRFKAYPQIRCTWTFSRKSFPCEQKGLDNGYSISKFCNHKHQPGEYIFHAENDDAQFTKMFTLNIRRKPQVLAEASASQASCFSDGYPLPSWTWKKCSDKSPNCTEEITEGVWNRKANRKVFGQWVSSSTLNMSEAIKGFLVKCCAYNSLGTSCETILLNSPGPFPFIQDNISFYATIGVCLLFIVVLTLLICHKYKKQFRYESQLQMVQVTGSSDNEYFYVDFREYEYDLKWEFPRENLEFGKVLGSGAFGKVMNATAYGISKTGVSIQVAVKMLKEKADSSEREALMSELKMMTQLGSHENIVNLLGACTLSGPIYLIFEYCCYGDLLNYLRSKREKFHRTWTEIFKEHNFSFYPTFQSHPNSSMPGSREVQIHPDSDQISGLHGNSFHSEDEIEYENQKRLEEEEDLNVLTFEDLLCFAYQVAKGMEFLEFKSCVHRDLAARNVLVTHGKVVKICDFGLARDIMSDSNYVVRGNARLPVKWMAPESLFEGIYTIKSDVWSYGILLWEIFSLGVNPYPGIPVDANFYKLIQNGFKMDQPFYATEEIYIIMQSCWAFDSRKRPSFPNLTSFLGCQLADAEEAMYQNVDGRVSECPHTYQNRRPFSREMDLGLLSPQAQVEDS
Method: The inhibition of FLT3 kinase was assessed using FLT3 recombinant protein in an in vitro peptide-based kinase assay.
In a final reaction volume of 25 μL, Flt3 (h) (5-10 mU) is incubated with 8 mM MOPS pH 7.0, 0.2 mM EDTA, 50 μM EAIYAAPFAKKK, 10 mM MgAcetate and [g-33P-ATP] (specific activity approx. 500 cpm/pmol, concentration as required). The reaction is initiated by the addition of the MgATP mix. After incubation for 40 minutes at room temperature, the reaction is stopped by the addition of 5 μL of a 3% phosphoric acid solution. 10 μL of the reaction is then spotted onto a P30 filtermat and washed three times for 5 minutes in 75 mM phosphoric acid and once in methanol prior to drying and scintillation counting.

FLT3 wt = target: T2, FLT3 wt (Homo sapiens, UniProt P36888); assay: radiometric protein kinase assay (33PanQinase Activity Assay) FLT3 wt, Protocol 2; type: biochemical; details: ATP 3 μM
T2 construct: purchased Invitrogen Corporation
T2 sequence (P36888 27-993): T1 sequence (P36888 27-993)
Method: A radiometric protein kinase assay (33PanQinase® Activity Assay) was used for measuring the kinase activity. All kinase assays were performed in 96-well FlashPlates™ from PerkinElmer (Boston, Mass., USA) in a 50 μl reaction volume. The reaction cocktail was pipetted in four steps in the following order: • 20 μl of assay buffer (standard buffer) • 5 μl of ATP solution (in H2O) • 5 μl of test compound (in 10% DMSO) • 10 μl of substrate/10 μl of enzyme solution (premixed)
The assay for FLT3 wt contains 70 mM HEPES-NaOH pH 7.5, 3 mM MgCl2, 3 mM MnCl2, 3 μM Na-orthovanadate, 1.2 mM DTT, ATP (3 μM), [γ-33P]-ATP (approx. 5×1005 cpm per well), protein kinase FLT3 wt (6.1 nM) and substrate (poly(Ala,Glu,Lys,Tyr)6:2:5:1), 0.125 μg/50 μl).
The kinases are obtained from Invitrogen Corporation.
The reaction cocktails were incubated at 30° C. for 60 minutes. The reaction was stopped with 50 μl of 2% (v/v) H3PO4, plates were aspirated and washed two times with 200 μl 0.9% (w/v) NaCl. Incorporation of 33Pi was determined with a microplate scintillation counter.

SMILES	IC50 (Flt3 (h))	melting point	IC50 (FLT3 wt)
O=C(O)c1ccc2cc1OCCOCCNc1ccn3ncc-2c3n1 [Compound 1]	< 0.1 µM	> 300 °C	–
CN1CCC(C(=O)N2CCOCCNc3ccn4ncc(c4n3)-c3cccc2c3)CC1 [Compound 2]	> 1 µM	> 300 °C	–
O=C1NCCCNc2ccn3ncc(c3n2)-c2cccc(c2)N1 [Compound 3]	< 0.1 µM	> 300 °C	–
NC(=O)c1ccc2cc1OCCNCCNc1ccn3ncc-2c3n1 [Compound 4]	< 0.1 µM	> 300 °C	–
c1cc2cc(c1)-c1cnn3ccc(nc13)NCCN(CCN1CCOCC1)CCO2 [Compound 5]	< 0.1 µM	> 300 °C	–
CC(C)N1CCNc2ccn3ncc(c3n2)-c2cccc(c2)OCC1 [Compound 6]	< 0.1 µM	> 300 °C	–
O=C1c2cccc(c2)-c2cnn3ccc(nc23)NCCNCCN1CCO [Compound 7]	0.1 to 1 µM	271.6 °C	–
O=C1NCCN(CCO)CCNc2ccn3ncc(c3n2)-c2cccc1c2 [Compound 8]	< 0.1 µM	283.9 °C	–
CN1CCNC(=O)c2cccc(c2)-c2cnn3ccc(nc23)NCC1 [Compound 9]	0.1 to 1 µM	287.6 °C	–
O=C(NCCCN1CCCC1)N1CCNCCOc2cccc(c2)-c2cnn3ccc1nc23 [Compound 10]	< 0.1 µM	–	–
CN(C)CCNC(=O)N1CCNCCOc2cccc(c2)-c2cnn3ccc1nc23 [Compound 11]	0.1 to 1 µM	> 300 °C	–
OCc1ccc2cc1OCCOCCNc1ccn3ncc-2c3n1 [Compound 12]	< 0.1 µM	> 300 °C	–
c1cc2cc(c1)-c1cnn3ccc(nc13)OCCN(CCCN1CCCC1)CCO2 [Compound 13]	> 1 µM	> 300 °C	–
O=C1NCCNCCN(CCO)c2ccn3ncc(c3n2)-c2cccc1c2 [Compound 14]	> 1 µM	–	–
O=C1NCCN(C2CC2)CCN(CCO)c2ccn3ncc(c3n2)-c2cccc1c2 [Compound 15]	0.1 to 1 µM	–	–
O=C(NCCF)c1ccc2cc1OCCOCCNc1ccn3ncc-2c3n1 [Compound 20]	–	> 300 °C	–
O=C1CNCCNc2ccn3ncc(c3n2)-c2cccc(c2)N1 [Compound 31]	–	–	> 1 µM
COc1ccc2cc1OCCNCCNc1ccn3ncc-2c3n1 [Compound 32]	–	–	0.1 to 1 µM
c1cc2cc(c1)-c1cnn3ccc(nc13)NCCCNCCO2 [Compound 33]	–	–	0.1 to 1 µM
O=C1CNCCNc2ccn3ncc(c3n2)-c2cccc(c2)CN1 [Compound 34]	–	–	> 1 µM
Fc1cc2cc(c1)-c1cnn3ccc(nc13)NCCOCCCO2 [Compound 35]	–	234.9 °C	–

Reference: US9370519B2, “Macrocyclic FLT3 kinase inhibitors” (Oncodesign S.A., priority 2011, dated 2016)
